Reference: article PMC10459693, “Toward Stability Enhancement of NTS1R-Targeted Radioligands: Structural Interventions on [^99mTc]Tc-DT1” (Pharmaceutics, 2023)
Square brackets hold non-standard residues; d marks the D form. Peptide text beside a SMILES is read from it. * marks the point of attachment. Palmitoyl = CCCCCCCCCCCCCCCC(=O)*; X1 = NCCNCC(CNCCN)C(=O)*

Molecular target: T1, human NTS1R (Homo sapiens, UniProt P30989)
T1 construct: Cell membrane homogenates from WiDr cells were collected; host or cells: WiDr human colorectal adenocarcinoma cells (membrane homogenates)
Assay: Competition binding against [^125I]I-Tyr^3-NT in WiDr cell membranes
Details: for IC50: displacement of [^125I]I-Tyr^3-NT, WiDr cell membranes, 1 h at 22 °C, mean ± sd
Procedure: Cell membrane homogenates from WiDr cells were collected and stored in Tris/EDTA (10 mM Tris, 0.1 mM EDTA, pH 7.4) solution at −80 °C, as previously described. On the day of the experiment, the aliquots thereof were thawed, combined, and diluted in cold binding buffer (BB: 50 mM HEPES, 5.5 mM MgCl2, 0.1 mg/mL bacitracin, 1% w/v BSA, pH 7.4). A dilution series of each test peptide (10^−12–10^−5 M) and a fresh solution of [^125I]I-Tyr^3-NT (~40,000 cpm/70 μL, 214 pM) were prepared and kept on ice. In each RIA tube per placed on ice (in triplicate for each concentration point), the following ice-cold solutions were added: test peptide solution (30 μL), the [^125I]I-Tyr^3-NT radioligand (70 μL), and membrane homogenate (200 μL). Tubes were incubated under constant stirring for 1 h at 22 °C in an Incubator-Orbital Shaker (MPM Instr. Srl; Bernareggio, Italy). The incubation was terminated by placing the tubes on ice and adding ice-cold washing buffer (10 mM HEPES, 150 mM NaCl, pH 7.4). Samples were rapidly passed through Whatman GF/B filters (presoaked for 1 h in BB) on a 48-sample Brandel Cell Harvester (Adi Hassel Ingenieur Büro, Munich, Germany). Separate filters were measured for radioactivity on the γ-counter, and the half maximal inhibition concentration (IC50) was calculated applying a non-linear one-site model (GraphPad Prism Software 6.0, San Diego, CA, USA).

T1 sequence (P30989 whole entry): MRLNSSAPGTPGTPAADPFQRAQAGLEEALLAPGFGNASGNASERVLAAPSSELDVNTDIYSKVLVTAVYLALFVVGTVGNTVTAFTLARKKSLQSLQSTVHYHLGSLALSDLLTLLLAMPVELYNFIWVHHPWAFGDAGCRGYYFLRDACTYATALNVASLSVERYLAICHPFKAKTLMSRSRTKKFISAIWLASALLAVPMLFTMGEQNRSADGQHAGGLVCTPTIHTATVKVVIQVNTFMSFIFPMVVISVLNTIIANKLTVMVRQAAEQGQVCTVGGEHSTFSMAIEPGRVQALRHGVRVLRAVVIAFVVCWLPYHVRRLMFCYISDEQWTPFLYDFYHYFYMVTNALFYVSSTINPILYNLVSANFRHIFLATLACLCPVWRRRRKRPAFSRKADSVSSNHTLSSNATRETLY

| Structure (SMILES) | drop of binding affinity to the NTS1R compared to DT1 (by a power of) | IC50 |
| --- | --- | --- |
| CC[C@H](C)[C@H](NC(=O)[C@H](Cc1ccc(O)cc1)NC(=O)[C@@H]1CCCN1C(=O)[C@H](CCCNC(=N)N)NC(=O)[C@H](CCCNC(=N)N)NC(=O)CNC(=O)C(CNCCN)CNCCN)C(=O)N[C@@H](CC(C)C)C(=O)N[C@H](CC(N)=O)C(=O)O [DT7, N4-Gly-Arg-Arg-Pro-Tyr-Ile-Leu-DAsn-OH] (X1-GRRPYIL[dN]-OH) | ~100 | 29.1 ± 4.11 nM |
| CCCCCCCCCCCCCCCC(=O)NCCCC[C@H](NC(=O)C(CNCCN)CNCCN)C(=O)N[C@@H](CCCNC(=N)N)C(=O)N[C@@H](CCCNC(=N)N)C(=O)N1CCC[C@H]1C(=O)N[C@@H](Cc1ccc(O)cc1)C(=O)N[C@H](C(=O)N[C@@H](CC(C)C)C(=O)O)[C@@H](C)CC [DT9] (X1-K(Palmitoyl)RRPYIL-OH) |  | 0.89 ± 0.7 nM |
